Reference: patent publication US20230054333A1, “Herbicide Combinations Comprising Glufosinate and Saflufenacil” (BASF SE, priority 2020, published 2023)

Columns and labels:
Settings in all cases: visual scale 0 to 100, mean of three replications
Palmer amaranth = experiment: Greenhouse post emergence treatment, visual herbicidal activity against Palmer amaranth; assay type: in vivo, Amaranthus palmeri
Excerpt: (§1) Synergism can be described as an interaction where the combined effect of two or more compounds is greater than the sum of the individual effects of each of the compounds. The presence of a synergistic effect in terms of percent control, between two mixing partners (X and Y) can be calculated using the Colby equation (Colby, S. R., 1967, Calculating Synergistic and Antagonistic Responses in Herbicide Combinations, Weeds, 15, 21-22):
(§2) When the observed combined control effect is greater than the expected (calculated) combined control effect (E), then the combined effect is synergistic.
(§3) Weeds included Palmer aamaranth (Amaranthus palmen) and crop plants included soybean (Glycine max) with glufosinate tolerance (Liberty Link, BASF) or glyphosate tolerance (Roundup Ready, Bayer). However, the herbicidal effect afforded by the compounds, mixtures or compositions is not limited to these species. The analysis of synergism or antagonism between the mixtures or compositions was determined using Colby's equation.
(§4) Pots with 0.3 L of volume were filled with soil (SunGro Horticulture, Agawam, MA 01001) to grow one plant per pot in the greenhouse until the desired developmental stage. […] During this time, the plants were tended, and their response to the individual treatments was evaluated. […]

LibertyLink Soybean = experiment: Greenhouse post emergence treatment, visual herbicidal activity against LibertyLink soybean; assay type: in vivo, Glycine max
Excerpt: as §1, §2, §3, §4

Roundup Ready Soybean = experiment: Greenhouse post emergence treatment, visual herbicidal activity against Roundup Ready soybean; assay type: in vivo, Glycine max
Excerpt: as §1, §2, §3, §4

CP(=O)(O)CCC(N)C(=O)O (racemic) [Glufosinate, (2RS)-2-amino-4-[hydroxy(methyl)phosphinoyl]butyric acid]
Herbicidal activity against Palmer amaranth (2 DAT) Found (Palmer amaranth; Glufosinate 280 g ai/ha): 20
Herbicidal activity against LibertyLink Soybean (2 DAT) Found (LibertyLink Soybean; Glufosinate 280 g ai/ha): 5
Herbicidal activity against Roundup Ready Soybean (2 DAT) Found (Roundup Ready Soybean; Glufosinate 280 g ai/ha): 35

CC(C)N(C)S(=O)(=O)NC(=O)c1cc(-n2c(=O)cc(C(F)(F)F)n(C)c2=O)c(F)cc1Cl [Saflufenacil]
Herbicidal activity against Palmer amaranth (2 DAT) Found (Palmer amaranth; Saflufenacil 1 g ai/ha): 4
Herbicidal activity against LibertyLink Soybean (2 DAT) Found (LibertyLink Soybean; Saflufenacil 1 g ai/ha): 1
Herbicidal activity against Roundup Ready Soybean (2 DAT) Found (Roundup Ready Soybean; Saflufenacil 1 g ai/ha): 0
